Values joined by “and” are separate entries in the source; they are usually repeats but may differ in a detail not shown here. Equal values may be shown once.
What was measured:
subjective drug effects = assay: Drug Effects Questionnaire; type: in vivo, humans; details: oral MDMA; all subjective ratings (DEQ and VAS)
plasma OT levels = assay: Plasma oxytocin levels after oral MDMA; type: in vivo, humans
[1] = test system: heart rate and blood pressure; assay: Cardiovascular measures; type: in vivo, humans; details: intranasal oxytocin 20 IU or 40 IU versus placebo

| Compound | time of peak effects on all subjective ratings after capsule ingestion (subjective drug effects) [min] | plasma OT levels compared to placebo (plasma OT levels; oral MDMA 0.75 mg/kg, N=14, t[13] = 2.96, p = 0.07) | duration of plasma OT elevation (plasma OT levels; oral MDMA 1.5 mg/kg) [h] | time of mean peak plasma OT concentration after capsule ingestion (plasma OT levels; oral MDMA 1.5 mg/kg, N=14) | time to significantly elevated plasma OT following capsule administration (plasma OT levels; oral MDMA 1.5 mg/kg, first time point) [min] | plasma OT levels compared to placebo (intranasal oxytocin 20 IU, N=6) | duration of plasma OT elevation (intranasal oxytocin 40 IU) [min] | time of peak plasma OT after nasal spray administration (intranasal oxytocin 40 IU, N=8) [min] | cardiovascular and subjective effects [1] |
| --- | --- | --- | --- | --- | --- | --- | --- | --- | --- |
| CNC(C)Cc1ccc2c(c1)OCO2 (racemic) [MDMA, ±3,4-methylenedioxymethamphetamine] | 60 to 120 | slightly increased compared to placebo but this difference did not reach significance | 3 | 90 to 120 min and 120 min | ≤ 60 |  |  |  |  |
| CC[C@H](C)[C@@H]1NC(=O)[C@H](Cc2ccc(O)cc2)NC(=O)[C@@H](N)CSSC[C@@H](C(=O)N2CCC[C@H]2C(=O)N[C@@H](CC(C)C)C(=O)NCC(N)=O)NC(=O)[C@H](CC(N)=O)NC(=O)[C@H](CCC(N)=O)NC1=O [Oxytocin, oxytocin] |  |  |  |  |  | did not observe an increase in plasma OT | 30 | 30 to 60 | no cardiovascular or subjective effects |

Source: article PMC4088952 (Psychoneuroendocrinology, 2014)
